Experimental data published in publication PMC7549094 (Journal of Medicinal Chemistry, 2020).
Values after ≈ are worked out from the molar mass of the structure shown. Like-named read-outs stand apart in the source and are kept apart here.

Legend:
[1] = target: wild-type (PSMB4^WT) L. tarentolae proteasome (Leishmania tarentolae, UniProt A0A640KTY7+A0A640KW57); test: chymotrypsin-like activity of purified wild-type L. tarentolae proteasome; type: biochemical; conditions: n = 3 technical replicates
wild-type (PSMB4^WT) L. tarentolae proteasome, sequence (A0A640KW57 100-302): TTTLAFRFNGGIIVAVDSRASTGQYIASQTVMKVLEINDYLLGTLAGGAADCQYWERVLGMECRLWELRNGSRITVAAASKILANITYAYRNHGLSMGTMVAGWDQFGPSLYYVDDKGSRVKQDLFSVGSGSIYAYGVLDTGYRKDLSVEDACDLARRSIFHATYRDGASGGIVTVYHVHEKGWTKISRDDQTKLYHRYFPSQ
wild-type (PSMB4^WT) L. tarentolae proteasome, sequence (A0A640KTY7 1-206): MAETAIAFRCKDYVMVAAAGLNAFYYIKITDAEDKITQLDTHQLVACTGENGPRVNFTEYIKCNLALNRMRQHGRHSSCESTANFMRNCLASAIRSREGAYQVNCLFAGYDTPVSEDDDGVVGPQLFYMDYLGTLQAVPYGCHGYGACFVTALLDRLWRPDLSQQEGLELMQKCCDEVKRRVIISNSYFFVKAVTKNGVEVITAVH

[2] = rat plasma; oral administration of 1; dose-normalized AUC
[3] = metabolite profile in rat hepatocytes; type: in vitro ADME; conditions: 10 μM of 1 for 4 h, UV 250 nm, normalized to largest peak
[4] = metabolite profile in dog hepatocytes; type: in vitro ADME; conditions: 10 μM of 1 for 4 h, UV 250 nm, normalized to largest peak
[5] = pharmacokinetics in cynomolgus monkey; type: in vivo; conditions: monkey plasma; oral administration of 1; dose-normalized AUC
Method: In Vivo Intravenous PK Study in Non-human Primates. The IV PK study in non-human primates was carried out at Covance research facility in Greenfield, Indiana. The research facility is accredited by AAALAC (Association for Assessment and Accreditation of Laboratory Animal Care). The male Cynomolgus monkeys were approximately 4.5 years of age and weighed 4.2 to 5.0 kg. 1 was administered […]
75% polyethylene glycol (PEG300) as described in the earlier section. Doses were administered once by intravenous injection via the saphenous vein at a dose of 0.3 mg/kg with a dosing volume of 0.1 ml/kg.
Clinical observations and food consumption determinations were performed on all animals. Blood samples for PK analysis were collected from all animals via the femoral vein approximately 0.083, 0.25, […]
In Vivo Oral PK Study in Non-human Primates. The PO PK study in non-human primates was conducted at a Novartis facility using Non-naïve male Cynomolgus monkeys weighing 3.8 to 4.0 kg. The monkeys were fasted overnight and fed 2 hours post-dose. 1 was formulated in a suspension of 0.5% […]
gavaged with 5 mL/kg of the suspension for a total dose of 10 mg/kg. The gavage tubing was flushed with 5 mL of water to ensure the gavage tubing was cleared of the formulation. Blood samples for PK analysis were collected from all animals via the saphenous veins approximately 0.25, 0.5, 1, 2, 4, 7, 24, 48, and 72 hours post-dose.

[6] = metabolite profile in monkey hepatocytes; type: in vitro ADME; conditions: 10 μM of 1 for 4 h, UV 250 nm, normalized to largest peak
[7] = target: T1, purified L. donovani proteasome (Leishmania donovani, UniProt A0A3Q8IIY4+A0A3S7XA80); test: chymotrypsin-like activity of purified L. donovani proteasome; type: biochemical; conditions: half-maximum inhibition of chymotrypsin-like activity of purified L. donovani proteasome; mean, n = 4 technical replicates
T1 sequence (A0A3Q8IIY4 100-302): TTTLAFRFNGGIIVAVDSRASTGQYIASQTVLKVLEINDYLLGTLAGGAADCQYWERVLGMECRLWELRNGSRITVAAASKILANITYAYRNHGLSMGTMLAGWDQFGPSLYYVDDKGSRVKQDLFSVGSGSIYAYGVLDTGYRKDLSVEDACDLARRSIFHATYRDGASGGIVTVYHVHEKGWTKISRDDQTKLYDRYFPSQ
T1 sequence (A0A3S7XA80 1-206): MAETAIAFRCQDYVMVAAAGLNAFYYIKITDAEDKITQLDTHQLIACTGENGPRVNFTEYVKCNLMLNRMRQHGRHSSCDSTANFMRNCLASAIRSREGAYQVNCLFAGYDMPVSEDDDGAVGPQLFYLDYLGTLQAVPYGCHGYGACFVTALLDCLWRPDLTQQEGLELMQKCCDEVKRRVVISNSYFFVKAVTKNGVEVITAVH

[8] = metabolite profile in mouse hepatocytes; type: in vitro ADME; conditions: 10 μM of 1 for 4 h, UV 250 nm, normalized to largest peak
[9] = metabolite profile in human hepatocytes; type: in vitro ADME; conditions: 10 μM of 1 for 4 h, UV 250 nm, normalized to largest peak
[10] = pharmacokinetics, summary across preclinical species; type: in vivo, rat, dog, cynomolgus monkey; conditions: mouse, rat, and monkey plasma; single oral dose of 1
[11] = mouse plasma; oral administration of 1; dose-normalized AUC
Method: In Vivo PK Studies in Mice.
(§1) The solution was filtered using a 0.45 m syringe filter before dosing. Two male Balb/c mice were administered 1 intravenously via the lateral tail
(§2) vein at 5 mg/kg with a dose volume of 2.0 mL/kg. 1 was also formulated in a suspension of 0.5%
(§3) methylcellulose with 0.5% Tween 80 (0.5% MC/0.5% Tw80) in water at 2.5 mg/mL. A group of mice
(§4) (n=3) were administered 1 orally via gavage at 20 mg/kg with a dose volume of 8.0 mL/kg.
(§5) The mouse blood samples were centrifuged to separate plasma and the plasma samples were frozen at -
In Vivo PK Studies in Rats.
Two male Wistar rats were administered
(§6) 1 intravenously via the lateral tail vein at 3 mg/kg with a dose volume of 1.0 mL/kg. 1 was also formulated
(§7) in a suspension of 0.5% methylcellulose with 0.5% Tween 80 (0.5% MC/0.5% Tw80) in water at 2.0
(§8) mg/mL. The second group of rats (n=3) were administered 1 orally via gavage at 10 mg/kg in suspension
(§9) with a dose volume of 5.0 mL/kg. Six blood samples of 100 μL each were collected serially from each
(§10) animal via the saphenous vein up to 24 hours after dosing. The rat blood samples were centrifuged to
(§11) separate plasma and the plasma samples were frozen at -20°C until analysis.
In Vivo PK Studies in Dogs.
(§12) The solution was filtered using a 0.45 m syringe filter before dosing. Three male Beagle dogs were administered 1 intravenously via saphenous
(§13) vein at 0.3 mg/kg with a dose volume of 0.1 mL/kg. 1 was also formulated in a suspension of 0.5%
(§14) methylcellulose with 0.5% Tween 80 (0.5%MC/0.5% Tween 80) in water at 1.0 mg/mL. The second
(§15) group of male dogs (n=2) were administered 1- orally via gavage at 1.0 mg/kg with a dose volume of 1.0
(§16) mL/kg. Seven blood samples of 250 µL each were collected serially from each animal via the jugular vein
(§17) The dog blood samples were centrifuged to separate plasma and the plasma
(§18) samples were frozen at -20 °C until analysis.

[12] = system: intramacrophage L. donovani amastigotes; test: L. donovani amastigote proliferation within primary mouse macrophages; type: cell-based; conditions: Leishmania donovani, Macrophage
[13] = microsomal extraction ratio, 1 h incubation in microsomes
[14] = high-throughput solubility pH 6.8; type: physicochemical; conditions: high-throughput assay format, read-out: HT sol. pH 6.8
[15] = microsomal extraction ratio, 1 h incubation in microsomes; remark: listed apart in the source
[16] = microsomal extraction ratio, 1 h incubation in microsomes; remark: listed apart in the source
[17] = microsomal extraction ratio, 1 h incubation in microsomes; remark: listed apart in the source
[18] = dog plasma; oral administration of 1; dose-normalized AUC
Method: In Vivo PK Studies in Mice.
as §1, §2, §3, §4, §5
In Vivo PK Studies in Rats.
Two male Wistar rats were administered
as §6, §7, §8, §9, §10, §11
In Vivo PK Studies in Dogs.
as §12, §13, §14, §15, §16, §17, §18

Q: For `CC(C)C[C@H](NC(=O)[C@H](Cc1ccccc1)NC(=O)c1cnccn1)B(O)O` [Bortezomib, bortezomib, reference compound], which IC50 [1] is on record?
A: 0.004 µM

Q: With `Cc1nc(C)c(C(=O)Nc2ccc(F)c(-c3nc4ncc(-c5ncccc5CO)cn4n3)c2)o1` [compound 6] as the molecule, how does the “metabolite exposure relative to 1” value [2] read?
A: 1.5%

Q: And the abundance rat [3]?
A: + (+ ≤25%)

Q: And the abundance dog [4]?
A: + (+ ≤25%)

Q: And the “metabolite exposure relative to 1” value [5]?
A: 1.7%

Q: What about the abundance monkey [6] of the same molecule?
A: + (+ ≤25%)

Q: And the IC50 [7]?
A: 0.07 µM

Q: What about the abundance mouse [8] of the same molecule?
A: + (+ ≤25%)

Q: What about the abundance human [9] of the same molecule?
A: + (+ ≤25%)

Q: What about the “metabolite exposure relative to 1” value [10] of the same molecule?
A: less than 10%

Q: And the “metabolite exposure relative to 1” value [11]?
A: 1.5%

Q: And the EC50 [12]?
A: 0.5 µM

Q: Which results are given for `Cc1nc(CO)c(C(=O)Nc2ccc(F)c(-c3nc4ncc(-c5ncccc5C)cn4n3)c2)o1` [compound 7]?
A: metabolite exposure relative to 1 [2]: 17%; abundance rat [3]: + (+ ≤25%); abundance dog [4]: + (+ ≤25%); metabolite exposure relative to 1 [5]: 11%; abundance monkey [6]: + (+ ≤25%); abundance mouse [8]: + (+ ≤25%); abundance human [9]: + (+ ≤25%); metabolite exposure relative to 1 [10]: 5–17%; metabolite exposure relative to 1 [11]: 4.5%

Q: Which ER mouse [13] does the source give for `COc1cccnc1-c1cnc2nc(-c3cc(NC(=O)c4oc(C)nc4C)ccc3F)nn2c1` [compound 5] here?
A: 0.4

Q: And the solubility kinetic [14]?
A: 7 µM (≈ 3.22 µg/mL)

Q: What about the ER dog [15] of the same molecule?
A: 0.56

Q: What about the ER human [16] of the same molecule?
A: < 0.21

Q: And the EC50 [12]?
A: 0.07 µM

Q: Which ER rat [17] does the source give for `Cc1nc(C)c(C(=O)Nc2ccc(F)c(-c3nc4ncc(-c5ccccn5)cn4n3)c2)o1` [compound 2] here?
A: < 0.27

Q: What about the ER dog [15] of the same molecule?
A: 0.46

Q: And the ER human [16]?
A: 0.3

Q: Which ER mouse [13] does the source give for `Cc1nc(C)c(C(=O)Nc2ccc(F)c(-c3nc4ncc(-c5ncccc5C(F)F)cn4n3)c2)o1` [compound 3] here?
A: 0.51

Q: What about the solubility kinetic [14] of the same molecule?
A: 21 µM (≈ 10.1 µg/mL)

Q: And the IC50 [7]?
A: 0.06 µM

Q: What about the ER rat [17] of the same molecule?
A: < 0.18

Q: What about the ER dog [15] of the same molecule?
A: 0.57

Q: What about the ER human [16] of the same molecule?
A: 0.55

Q: What about the EC50 [12] of the same molecule?
A: 0.11 µM

Q: For `Cc1cccnc1-c1cnc2nc(-c3cc(NC(=O)c4oc(CO)nc4C)ccc3F)nn2c1` [compound 8], which “metabolite exposure relative to 1” value [18] is on record?
A: 120%

Q: And the “metabolite exposure relative to 1” value [2]?
A: 1.5%

Q: What about the abundance rat [3] of the same molecule?
A: + (+ ≤25%)

Q: And the abundance dog [4]?
A: ++ (++ ≤ 75%>25%)

Q: What about the “metabolite exposure relative to 1” value [5] of the same molecule?
A: 5.1%

Q: What about the abundance monkey [6] of the same molecule?
A: + (+ ≤25%)

Q: And the abundance human [9]?
A: + (+ ≤25%)

Q: And the “metabolite exposure relative to 1” value [10]?
A: 0.2–5%

Q: And the “metabolite exposure relative to 1” value [11]?
A: 0.2%

Q: What does the source list for `Cc1nc(C)c(C(=O)Nc2ccc(F)c(-c3nc4ncc(-c5ncccc5Cl)cn4n3)c2)o1` [compound 4]?
A: solubility kinetic [14]: 7 µM (≈ 3.25 µg/mL); IC50 [7]: 0.1 µM; EC50 [12]: 0.05 µM
